Data on 1 compound can be found in ChEMBL document CHEMBL3526031, “Mechanistic studies on the absorption and disposition of scutellarin in humans: selective OATP2B1-mediated hepatic uptake is a likely key determinant for its unique pharmacokinetic characteristics” (Drug Metab Dispos, 2012).

Data set [1] concerns the target T1, UDP-glucuronosyltransferase 1A1 (Homo sapiens, UniProt P22309).
T1 sequence (P22309 whole entry): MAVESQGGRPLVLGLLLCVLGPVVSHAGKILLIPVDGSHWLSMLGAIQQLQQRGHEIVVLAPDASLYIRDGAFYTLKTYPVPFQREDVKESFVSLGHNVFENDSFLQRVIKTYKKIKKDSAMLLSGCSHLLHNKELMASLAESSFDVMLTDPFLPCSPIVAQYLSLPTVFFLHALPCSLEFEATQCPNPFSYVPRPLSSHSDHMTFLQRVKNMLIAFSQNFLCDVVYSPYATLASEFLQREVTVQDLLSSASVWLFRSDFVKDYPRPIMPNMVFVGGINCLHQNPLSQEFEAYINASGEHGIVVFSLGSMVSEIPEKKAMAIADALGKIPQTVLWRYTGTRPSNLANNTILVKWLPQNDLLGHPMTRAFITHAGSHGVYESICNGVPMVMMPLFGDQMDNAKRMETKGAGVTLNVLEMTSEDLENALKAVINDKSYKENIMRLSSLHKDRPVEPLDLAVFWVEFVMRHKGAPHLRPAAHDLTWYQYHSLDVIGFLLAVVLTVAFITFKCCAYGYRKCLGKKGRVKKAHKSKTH
Put plainly: Drug metabolism assessed as human recombinant UGT1A1-mediated formation of scutellarein-6,7-diglucuronide after 25 mins by HPLC/UV analysis. It is filed as ADME.

A further data set concerns Homo sapiens. Put plainly: Drug metabolism in human assessed as retention time of parent compound at 40 mg, po up to 20 hrs by mass defect filter chromatogram analysis. It is filed as ADME, organism-based. The conditions noted are these: in vivo.

With `O=C(O)[C@H]1O[C@@H](Oc2cc3oc(-c4ccc(O)cc4)cc(=O)c3c(O)c2O)[C@H](O)[C@@H](O)[C@@H]1O` [SCUTELLARIN], the inhibition constant Ki in data set [1] was 96.6 µM. The Retention_time in the data set on Homo sapiens is given as 7.93 min.

By Ki is commonly meant the dissociation constant of the complex between target and ligand, obtained from inhibition or displacement.
